One experiment deals with blood glucose level. The experiment is described as follows: Oral glucose tolerance test (OGTT) in high-fat diet model. Type of experiment: in vivo. Particulars: hypoglycemic level, 20 mg/kg oral, glucose 2 g/kg oral after 30 minutes; for inhibition in vivo at 20 mg/kg: Mus musculus, 2 h, read-out: % AUC. The procedure:
To evaluate in vivo effective effects of the cyclohexene derivatives according to the present invention, experiments were carried out, as follows.
Specifically, male C57BL/6J (C57 black 6) […] (8 to 10 weeks old) in a high-fat diet model were acclimated for at least 7 days, and only healthy rat populations were selected and subjected to an oral glucose tolerance test (OGTT). The rats were fasted for 12 to 15 hours, and then randomly divided into groups with five rats per group. Thereafter, each of the compounds of Examples 1, 14, 48, 69, 80, 118, 139, 147, 148, 169, 190, 199, 200, 204, 227, and Comparative Examples 1 and 2 according to the present invention was administered to the rats at a dose of 20 mg/kg. In this case, a vehicle (0.5%, carboxymethyl cellulose (CMC)) was administered as an untreated group, and the dose of the compound administered together with the vehicle was orally administered at 10 ml/kg. After 30 minutes of administration, glucose (2 g/kg) was orally administered at a dose of 10 ml/kg. A blood glucose level was measured using an Accu-Chek Active Strip (Rosche Diagnostic Co.). In this case, the glucose level in blood collected via caudal venipuncture was measured at time points of −30, 0, 20, 40, 60, and 120 minutes after glucose administration.
In Table 3, the unit “% AUC (area under the curve)” represents a hypoglycemic level.

Experiment [1] addresses T1, G protein-coupled receptor 119 (GPR-119) (Mesocricetus auratus, UniProt A0A1U8CD06).
T1 construct: hamster-derived β-cells containing G protein-coupled receptor 119 (GPR-119), HIT-T15 cells; host or cells: HIT-T15 (hamster pancreatic β-cells)
T1 sequence (A0A1U8CD06 1-334): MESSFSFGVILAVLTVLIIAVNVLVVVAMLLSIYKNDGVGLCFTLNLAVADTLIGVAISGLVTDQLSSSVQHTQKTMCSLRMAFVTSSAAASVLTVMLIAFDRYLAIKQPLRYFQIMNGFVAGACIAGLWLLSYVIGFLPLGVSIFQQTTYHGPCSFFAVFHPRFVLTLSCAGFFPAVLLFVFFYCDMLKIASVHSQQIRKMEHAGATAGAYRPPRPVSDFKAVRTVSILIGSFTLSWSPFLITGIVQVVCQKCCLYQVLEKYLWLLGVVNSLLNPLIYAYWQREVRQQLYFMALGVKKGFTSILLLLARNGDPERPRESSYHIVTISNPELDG
The experiment can be described thus: Evaluation of cAMP activity in HIT-T15 cells (HTRF cAMP dynamic kit). It is filed as cell-based, hamster. The note with it: cAMP activation. The method, boiled down:
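HIT-T15 cells, 60,000/well, treated next day with compound at six concentrations ([…]) for 1 h at 37° C. Lysate cAMP quantified by HTRF competitive immunoassay (D2-cAMP, cryptate anti-cAMP); activity taken as change in FRET signal relative to DMSO.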

Where [2] appears, read: EC50 (nM), 1 h at 37° C., six concentrations.
Setting [3] is: 1 h at 37° C., six concentrations, read-out: EC50.

The structures appear in SMILES notation. Where two headings read alike, the source gives them in different places.

Turning to `CC(C)c1noc(C2CCN(c3ncnc(Nc4ccc(S(C)(=O)=O)cc4F)c3[N+](=O)[O-])CC2)n1` [Comparative Example 1, N-(2-fluoro-4-methylsulfonylphenyl)-5-nitro-6-[4-(3-propan-2-yl-1,2,4-oxadiazol-5-yl)piperidin-1-yl]pyrimidine-4-amine, reference compound], the inhibition in vivo at 20 mg/kg in the experiment with blood glucose level worked out at 13.5%.

A word on the EC50: it is the midpoint of the concentration-response curve. As for `CC(C)c1noc(N2CCC(COc3ccc(-c4ccc(S(C)(=O)=O)cc4)nc3)CC2)n1` [Comparative Example 2, 2-(4-methanesulfonylphenyl)-5-({1-[3-(propan-2-yl)-1,2,4-oxadiazol-5-yl]piperidin-4-yl}methoxy)pyridine, reference compound], in experiment [1] (setting [2]), the EC50 was 49 nM. For the same compound, the inhibition in vivo at 20 mg/kg in the experiment on blood glucose level stood at 15.3%.

Consider `C[C@H](CO)NC(=O)C1CC=C(c2ccc(OCC3CCN(C(=O)OC(C)(C)C)CC3)cc2)CC1` (stereo partly drawn) [Example 1, tert-butyl 4-((4-(4-((R)-1-hydroxypropan-2-ylcarbamoyl)cyclohex-1-enyl)phenoxy)methyl)piperidine-1-carboxylate], for which the EC50 in experiment [1] (setting [3]) was found to be 65 nM. For the same compound, the inhibition in vivo at 20 mg/kg in the experiment with blood glucose level came out at 28.5%.

With `CC(C)(C)OC(=O)N1CCC(COc2ccc(C3=CCC(C(=O)NC(CO)CO)CC3)nc2)CC1` (centres unmarked) [Example 14, tert-butyl 4-((6-(4-(1,3-dihydroxypropan-2-ylcarbamoyl)cyclohex-1-enyl)pyridin-3-yloxy)methyl)piperidine-1-carboxylate], the 50% effective concentration (EC50) in experiment [1] (setting [3]) was 650 nM. Further, in the experiment with blood glucose level, the inhibition in vivo at 20 mg/kg came to 21.9%.

Take `CC(C)(C)OC(=O)N1CCC(COc2ccc(C3=CCC(C(=O)N4CCOCC4)CC3)cc2F)CC1` (centres unmarked) [Example 69, tert-butyl 4-((2-fluoro-4-(4-(morpholine-4-carbonyl)cyclohex-1-enyl)phenoxy)methyl)piperidine-1-carboxylate]: the EC50 in experiment [1] (setting [3]) is 7 nM; in experiment [1] (read-out: EC50 value) it was no more than 50 nM. Further, the inhibition in vivo at 20 mg/kg in the experiment with blood glucose level is 19.1%.

In the case of `CC(C)c1noc(N2CCC(COc3ccc(C4=CCC(C(=O)NC(CO)CO)CC4)cc3F)CC2)n1` (centres unmarked) [Example 80, N-(1,3-dihydroxypropan-2-yl)-4-(3-fluoro-4-((1-(3-isopropyl-1,2,4-oxadiazol-5-yl)piperidin-4-yl)methoxy)phenyl)cyclohex-3-enecarboxamide], the EC50 in experiment [1] (setting [3]) came out at 89 nM. For the same compound, the inhibition in vivo at 20 mg/kg with blood glucose level was 19.7%.

As to `CCc1cnc(N2CCC(COc3ccc(C4=CCC(C(=O)N5CCC[C@@H]5CO)CC4)cc3)CC2)nc1` (stereo partly drawn) [Example 118, (4-(4-((1-(5-ethylpyrimidin-2-yl)piperidin-4-yl)methoxy)phenyl)cyclohex-3-enyl)((R)-2-(hydroxymethyl)pyrrolidin-1-yl)methanone], the concentration for a half-maximal effect (EC50) is 31 nM in experiment [1] (setting [3]) and no more than 50 nM in experiment [1] (read-out: EC50 value). The inhibition in vivo at 20 mg/kg in the experiment with blood glucose level was determined as 23.5%.

In the case of `CC(C)c1noc(N2CCC(COc3ccc(C4=CCC(C(=O)NCC(=O)N5CCC[C@H]5C#N)CC4)cc3F)CC2)n1` (stereo partly drawn) [Example 139, N-(2-((S)-2-cyanopyrrolidin-1-yl)-2-oxoethyl)-4-(3-fluoro-4-((1-(3-isopropyl-1,2,4-oxadiazol-5-yl)piperidin-4-yl)methoxy)phenyl)cyclohex-3-enecarboxamide], the half-maximal effective concentration (EC50) in experiment [1] (setting [3]) stood at 130 nM. Besides, the inhibition in vivo at 20 mg/kg in the experiment with blood glucose level worked out at 25.4%.

As to `CC(C)c1noc(N2CCC(COc3ccc(C4=CCC(C(=O)N5CCC[C@@H]5CO)CC4)cc3)CC2)n1` (stereo partly drawn) [Example 147, ((R)-2-(hydroxymethyl)pyrrolidin-1-yl)(4-(4-((1-(3-isopropyl-1,2,4-oxadiazol-5-yl)piperidin-4-yl)methoxy)phenyl)cyclohex-3-enyl)methanone], the results for the concentration giving a half-maximal response (EC50) in experiment [1] (setting [3]) and in experiment [1] (read-out: EC50 value) were 6.9 nM and no more than 50 nM, respectively. Besides, the inhibition in vivo at 20 mg/kg in the experiment on blood glucose level worked out at 23.3%.

Take `CC(C)(C)OC(=O)N1CCC(COc2ccc(C3=CCC(C(=O)NCCO)CC3)cc2)CC1` (centres unmarked) [Example 190, tert-butyl 4-((4-(4-(2-hydroxyethylcarbamoyl)cyclohex-1-enyl)phenoxy)methyl)piperidine-1-carboxylate]: the “% AUC” value in the experiment with blood glucose level is listed as 20.9 % AUC.

Take `CCO/N=C1/CCN(C(=O)C2CC=C(c3ccc(OCC4CCN(c5ncc(CC)cn5)CC4)cc3)CC2)C1` (centres unmarked) [Example 269, (3-(ethoxyimino)pyrrolidin-1-yl)(4-(4-((1-(5-ethylpyrimidin-2-yl)piperidin-4-yl)methoxy)phenyl)cyclohex-3-enyl)methanone]: the results for the concentration for a half-maximal effect (EC50) in experiment [1] (setting [3]) and in experiment [1] (read-out: EC50 value) were 35 nM and no more than 50 nM, respectively.

Regarding `CON=C1CCN(C(=O)C2CC=C(c3ccc(OCC4CCN(C(=O)OC(C)(C)C)CC4)cc3)CC2)CC1` (centres unmarked) [Example 270, tert-butyl 4-((4-(4-(4-(methoxyimino)piperidine-1-carbonyl)cyclohex-1-enyl)phenoxy)methyl)piperidine-1-carboxylate], in experiment [1] (setting [3]), the half-maximal effective concentration (EC50) was 12 nM.

Regarding `CC(C)(C)OC(=O)N1CCC(COc2ccc(C3=CCC(C(=O)N4CCC(=NO)CC4)CC3)cc2)CC1` (centres unmarked) [Example 271, tert-butyl 4-((4-(4-(4-(hydroxyimino)piperidine-1-carbonyl)cyclohex-1-enyl)phenoxy)methyl)piperidine-1-carboxylate], the concentration for a half-maximal effect (EC50) is 13 nM in experiment [1] (setting [3]) and no more than 50 nM in experiment [1] (read-out: EC50 value).

`CC(C)(C)OC(=O)N1CCC(COc2ccc(C3=CCC(C(=O)N4CCC(=O)CC4)CC3)cc2)CC1` (centres unmarked) [Example 272, tert-butyl 4-((4-(4-(4-oxopiperidine-1-carbonyl)cyclohex-1-enyl)phenoxy)methyl)piperidine-1-carboxylate]: the EC50 is 33 nM in experiment [1] (setting [2]) and no more than 50 nM in experiment [1] (EC50 value).

`CO/N=C1\CCN(C(=O)C2CC=C(c3ccc(OCC4CCN(C(=O)OC(C)(C)C)CC4)cc3)CC2)C1` (centres unmarked) [Example 273, tert-butyl 4-((4-(4-(3-(methoxyimino)pyrrolidine-1-carbonyl)cyclohex-1-enyl)phenoxy)methyl)piperidine-1-carboxylate]: the concentration giving a half-maximal response (EC50) in experiment [1] (setting [3]) was 11 nM; in experiment [1] (read-out: EC50 value), no more than 50 nM.

Take `CCc1cnc(N2CCC(COc3ccc(C4=CCC(C(=O)N5CCC(=O)CC5)CC4)cc3)CC2)nc1` (centres unmarked) [Example 274, 1-(4-(4-((1-(5-ethylpyrimidin-2-yl)piperidin-4-yl)methoxy)phenyl)cyclohex-3-enecarbonyl)piperidin-4-one]: the half-maximal effective concentration (EC50) in experiment [1] (setting [2]) is 27 nM; in experiment [1] (EC50 value) it was no more than 50 nM.

On to `CC(C)c1noc(N2CCC(COc3ccc(C4=CCC(C(=O)N5CCC(=O)CC5)CC4)cc3)CC2)n1` (centres unmarked) [Example 275, 1-(4-(4-((1-(3-isopropyl-1,2,4-oxadiazol-5-yl)piperidin-4-yl)methoxy)phenyl)cyclohex-3-enecarbonyl)piperidin-4-one], for which the EC50 in experiment [1] (setting [2]) is 28 nM; in experiment [1] (EC50 value), no more than 50 nM.

With `CC(C)c1noc(N2CCC(COc3ccc(C4=CCC(C(=O)N5CCC(=NO)CC5)CC4)cc3)CC2)n1` (centres unmarked) [Example 276, (4-(hydroxyimino)piperidin-1-yl)(4-(4-((1-(3-isopropyl-1,2,4-oxadiazol-5-yl)piperidin-4-yl)methoxy)phenyl)cyclohex-3-enyl)methanone], the EC50 in experiment [1] (setting [3]) stood at 29 nM.

As to `CON=C1CCN(C(=O)C2CC=C(c3ccc(OCC4CCN(c5nc(C(C)C)no5)CC4)cc3)CC2)CC1` (centres unmarked) [Example 278, (4-(4-((1-(3-isopropyl-1,2,4-oxadiazol-5-yl)piperidin-4-yl)methoxy)phenyl)cyclohex-3-enyl)(4-(methoxyimino)piperidin-1-yl)methanone], the EC50 is 18 nM in experiment [1] (setting [3]) and no more than 50 nM in experiment [1] (read-out: EC50 value).

Turning to `CON=C1CN(C(=O)C2CC=C(c3ccc(OCC4CCN(c5nc(C(C)C)no5)CC4)cc3)CC2)C1` (centres unmarked) [Example 286, (4-(4-((1-(3-isopropyl-1,2,4-oxadiazol-5-yl)piperidin-4-yl)methoxy)phenyl)cyclohex-3-enyl)(3-(methoxyimino)azetidin-1-yl)methanone], the EC50 in experiment [1] (setting [3]) is 37 nM; in experiment [1] (read-out: EC50 value), no more than 50 nM.

Turning to `CC(C)c1noc(N2CCC(COc3ccc(C4=CCC(C(=O)N5CC(O)C5)CC4)cc3)CC2)n1` (centres unmarked) [Example 289, (3-hydroxyazetidin-1-yl)(4-(4-((1-(3-isopropyl-1,2,4-oxadiazol-5-yl)piperidin-4-yl)methoxy)phenyl)cyclohex-3-enyl)methanone], the EC50 in experiment [1] (setting [3]) was 32 nM; in experiment [1] (read-out: EC50 value), no more than 50 nM.

The values above are taken from patent US9758527B2, “Cyclohexene derivative, preparation method therefor, and pharmaceutical composition for preventing or treating metabolic diseases, containing same as active ingredient” (HYUNDAI PHARM CO., LTD., priority 2014, dated 2017).
